Laboratory results reported in patent US20200369728A1, “PEPTIDOMIMETIC MACROCYCLES AND USES THEREOF” (Aileron Therapeutics, Inc., priority 2015, published 2020).
pEC50: −log10 of the molar value. Bridge positions count the residues as written; N and C are the ends. Square brackets hold non-standard residues; d marks the D form. Peptide text beside a SMILES is read from it. R8 = C=CCCCCCC[C@@](C)(N)C(=O)O; S5 = C=CCCC[C@](C)(N)C(=O)O

Legend:
SJSA-1 cells = test: Cell lysis by peptidomimetic macrocycles (LDH release); format: cell-based; settings: SJSA-1, 1 h
In short: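 Membrane lysis measured as supernatant LDH after a 1 h, 37 °C exposure of SJSA-1 cells, held in RPMI with 1% FBS, to macrocycles at final 6.25-50 μM with 0.5% DMSO. Lytic references were 10 μM melittin and 1% Triton X-100; DMSO alone served as non-lytic control.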

[1] = Circular dichroism (CD) analysis of alpha-helicity; format: physicochemical; settings: for Molar Ellipticity TFE − Molar Ellipticity Benign / Molar Ellipticity 50% TFE (222 in 50% TFE) / Molar Ellipticity Benign (222 in 0% TFE): 222 nm; for Molar Ellipticity 50% TFE (222 in 50% TFE): CD buffer with 50% TFE; for Molar Ellipticity 50% TFE (222 in 50% TFE) / Molar Ellipticity Benign (222 in 0% TFE): 0.05 mg/ml, 4° C.; for Molar Ellipticity Benign (222 in 0% TFE): benign CD buffer (20 mM phosphoric acid, pH 2); for % Helix benign compared to 50% TFE parent (CD): benign buffer
Description: Peptide solutions were analyzed by CD spectroscopy using a Jasco J-815 spectropolarimeter (Jasco Inc., Easton, Md.) with the Jasco Spectra Manager Ver. 2 system software. A Peltier temperature controller was used to maintain temperature control of the optical cell. Results are expressed as mean molar ellipticity (deg cm^2 dmol^−1) as calculated from the equation [0]=θobs·MRW/10*l*c where θobs is the observed ellipticity in millidegrees, MRW is the mean residue weight of the peptide (peptide molecular weight/number of residues), 1 is the optical path length of the cell in centimeters, and c is the peptide concentration in mg/ml. Peptide concentrations were determined by amino acid analysis. Stock solutions of peptides were prepared in benign CD buffer (20 mM phosphoric acid, pH 2). The stocks were used to prepare peptide solutions of 0.05 mg/ml in either benign CD buffer or CD buffer with 50% trifluoroethanol (TFE) for analyses in a 10 mm pathlength cell. Variable wavelength measurements of peptide solutions were scanned at 4° C. from 195 to 250 nm, in 0.2 nm increments, and a scan rate 50 nm per minute. The average of six scans was reported.

RKO = test: Cell viability assay (MTT), RKO; settings: read-out: RKO EC50 (72 h)
Caspase 3 = Caspase 3 detection assay in SJSA1 cells; format: cell-based; settings: SJSA1, 48 h, Caspase 3 activation over DMSO-treated cells
SJSA-1 = test: Cell viability assay (MTT), SJSA-1; settings: read-out: SJSA-1 EC50 (72 h); 72 h, MTT

% Helix 50% TFE compared to 50% TFE parent (CD) [1] [%] | Molar Ellipticity TFE − Molar Ellipticity Benign [1] [deg cm^2 dmol^−1] | Molar Ellipticity 50% TFE (222 in 50% TFE) [1] [deg cm^2 dmol^−1] | Molar Ellipticity Benign (222 in 0% TFE) [1] [deg cm^2 dmol^−1] | % Helix benign compared to 50% TFE parent (CD) [1] [%] | SMILES | 6.25 μM % Lysed cells (1 h LDH) (SJSA-1 cells) [%] | 25 μM % Lysed cells (1 h LDH) (SJSA-1 cells) [%] | 50 μM % Lysed cells (1 h LDH) (SJSA-1 cells) [%] | pEC50 (RKO) | caspase 0.3 μM (Caspase 3) | caspase 1 μM (Caspase 3) | caspase 3 μM (Caspase 3) | caspase 10 μM (Caspase 3) | caspase 30 μM (Caspase 3) | pEC50 (SJSA-1)
137.3 | −20045.4 | −19921.4 | 124 | −0.9 | CC(=O)N[C@@H](CC(C)C)C(=O)N[C@H](C(=O)N[C@@H](Cc1ccccc1)C(=O)N[C@]1(C)CCCCCCC=CCCC[C@@](C)(C(=O)N[C@@H](CO)C(=O)N[C@@H](C)C(=O)N[C@@H](Cc2ccccc2)C(N)=O)NC(=O)[C@H](CC(C)C)NC(=O)[C@H](CCC(N)=O)NC(=O)[C@H](C)NC(=O)[C@H](Cc2c[nH]c3ccccc23)NC(=O)[C@H](Cc2ccc(O)cc2)NC(=O)[C@H](C)NC1=O)[C@@H](C)O [compound 7] (Ac-LTF[R8]AYWAQL[S5]SAF-NH2; staple 4-11) | 0 | 0 | 0 | > 5.30 | 0.93 | 1.4 | 5.08 | 21.7 | 23.96 | 
 |  |  |  |  | CC(=O)N[C@@H](CC(C)C)C(=O)N[C@H](C(=O)N[C@@H](Cc1ccccc1)C(=O)N[C@]1(C)CCCCCC/C=C/CCC[C@@](C)(C(=O)N[C@@H](C)C(=O)N[C@@H](C)C(=O)N[C@@H](C)C(=O)N[C@@H](C)C(=O)N[C@H](C)C(=O)N[C@H](C)C(N)=O)NC(=O)[C@H](CC(C)C)NC(=O)[C@H](CCC(N)=O)NC(=O)[C@H](C)NC(=O)[C@H](Cc2c[nH]c3ccccc23)NC(=O)[C@H](Cc2ccc(O)cc2)NC(=O)[C@H](CCC(=O)O)NC1=O)[C@@H](C)O [compound 572] |  |  |  |  |  |  |  |  |  | > 5.30
106.1 | 16225.2 | −16623.4 | −398.2 | 2.5 | CC(=O)N[C@@H](CC(C)C)C(=O)N[C@H](C(=O)N[C@@H](Cc1ccccc1)C(=O)N[C@]1(C)CCCCCCC=CCCC[C@@](C)(C(=O)N[C@@H](CO)C(=O)N[C@@H](C)C(=O)N[C@@H](C)C(N)=O)NC(=O)[C@H](CC(C)C)NC(=O)[C@H](CCC(N)=O)NC(=O)[C@H](C)NC(=O)[C@H](Cc2c[nH]c3ccccc23)NC(=O)[C@H](Cc2ccc(O)cc2)NC(=O)[C@H](C)NC1=O)[C@@H](C)O [compound 11] (Ac-LTF[R8]AYWAQL[S5]SAA-NH2; staple 4-11) | −2 | 2 | 3 | > 5.30 | 1 |  | 5 | 23 | 33.5 | 
 |  |  |  |  | CCCC[C@H](NC(=O)[C@H](C)NC(=O)[C@H](C)NC(=O)[C@]1(C)CCCC=CCCCCCC[C@@](C)(NC(=O)[C@H](Cc2ccccc2)NC(=O)[C@@H](NC(=O)[C@H](CC(C)C)NC(C)=O)[C@@H](C)O)C(=O)N[C@@H](C)C(=O)N[C@@H](Cc2ccc(O)cc2)C(=O)N[C@@H](Cc2c[nH]c3ccccc23)C(=O)N[C@@H](C)C(=O)N[C@@H](CCC(N)=O)C(=O)N[C@@H](CC(C)C)C(=O)N1)C(=O)N[C@H](C)C(N)=O (single isomer, unassigned) [compound 74] |  |  |  |  |  |  |  |  |  | > 5.30
123.9 | −17760.8 | −17974 | −213.2 | 1.5 | CC(=O)N[C@@H](CC(C)C)C(=O)N[C@H](C(=O)N[C@@H](Cc1ccccc1)C(=O)N[C@]1(C)CCCCCCC=CCCC[C@@](C)(C(=O)N[C@@H](C)C(=O)N[C@@H](C)C(=O)N[C@@H](C)C(=O)N[C@H](C)C(N)=O)NC(=O)[C@H](CC(C)C)NC(=O)[C@H](CCC(N)=O)NC(=O)[C@H](C)NC(=O)[C@H](Cc2c[nH]c3ccccc23)NC(=O)[C@H](Cc2ccc(O)cc2)NC(=O)[C@H](C)NC1=O)[C@@H](C)O (single isomer, unassigned) [compound 230] | 0.5 | 0 | 3 |  | 1 |  | 2 | 3 | 11 | 
 |  |  |  |  | CC[C@H](C)[C@H](NC(=O)[C@H](C)NC(=O)[C@H](C)NC(=O)[C@]1(C)CCCCCCC=CCCC[C@@](C)(NC(=O)[C@H](Cc2ccccc2)NC(=O)[C@@H](NC(=O)[C@H](CC(C)C)NC(C)=O)[C@@H](C)O)C(=O)N[C@@H](C)C(=O)N[C@@H](Cc2ccc(O)cc2)C(=O)N[C@@H](Cc2c[nH]c3ccccc23)C(=O)N[C@@H](C)C(=O)N[C@@H](CCC(N)=O)C(=O)N[C@@H](CC(C)C)C(=O)N1)C(=O)N[C@H](C)C(N)=O [compound 234] |  |  |  |  |  |  |  |  |  | > 5.30
 |  |  |  |  | CC(=O)N[C@@H](CC(C)C)C(=O)N[C@H](C(=O)N[C@@H](Cc1ccccc1)C(=O)N[C@]1(C)CCCCCC/C=C/CCC[C@@](C)(C(=O)N[C@@H](C)C(=O)N[C@@H](C)C(=O)N[C@@H](C)C(=O)N[C@@H](C)C(=O)N[C@@H](C)C(=O)N[C@@H](C)C(N)=O)NC(=O)[C@H](CC(C)C)NC(=O)[C@H](CCC(N)=O)NC(=O)[C@H](C)NC(=O)[C@H](Cc2c[nH]c3ccccc23)NC(=O)[C@H](Cc2ccc(O)cc2)NC(=O)[C@H](CCC(=O)O)NC1=O)[C@@H](C)O [compound 573] |  |  |  |  |  |  |  |  |  | > 5.30
 |  |  |  |  | CCCC[C@H](NC(=O)[C@H](C)NC(=O)[C@H](C)NC(=O)[C@]1(C)CCCC=CCCCCCC[C@@](C)(NC(=O)[C@H](Cc2ccccc2)NC(=O)[C@@H](NC(=O)[C@H](CC(C)C)NC(C)=O)[C@@H](C)O)C(=O)N[C@@H](C)C(=O)N[C@@H](Cc2ccc(O)cc2)C(=O)N[C@@H](Cc2c[nH]c3ccccc23)C(=O)N[C@@H](C)C(=O)N[C@@H](CCC(N)=O)C(=O)N[C@@H](CC(C)C)C(=O)N1)C(=O)N[C@@H](C)C(N)=O (single isomer, unassigned) [compound 68] |  |  |  |  |  |  |  |  |  | > 5.30
 |  |  |  |  | CC(=O)N[C@@H](CC(C)C)C(=O)N[C@H](C(=O)N[C@@H](Cc1ccccc1)C(=O)N[C@]1(C)CCCCCCC=CCCC[C@@](C)(C(=O)N[C@@H](C)C(=O)N[C@@H](C)C(=O)N[C@H](C)C(=O)N[C@@H](C)C(=O)N[C@@H](C)C(=O)N[C@H](C)C(N)=O)NC(=O)[C@H](CC(C)C)NC(=O)[C@H](CCC(N)=O)NC(=O)[C@H](C)NC(=O)[C@H](Cc2c[nH]c3ccccc23)NC(=O)[C@H](Cc2ccc(O)cc2)NC(=O)[C@H](CCC(=O)O)NC1=O)[C@@H](C)O [compound 569] |  |  |  |  |  |  |  |  |  | > 5.30
116.4 | 2912.9 | −18247.4 | −15334.5 | 97.8 | CC(=O)N[C@@H](CC(C)C)C(=O)N[C@H](C(=O)N[C@@H](Cc1ccccc1)C(=O)N[C@]1(C)CCCCCCC=CCCC[C@@](C)(C(=O)N[C@@H](Cc2c[nH]cn2)C(=O)N[C@@H](Cc2c[nH]cn2)C(=O)N[C@@H](CC(C)C)C(=O)N[C@H](C)C(N)=O)NC(=O)[C@H](CC(C)C)NC(=O)[C@H](CCC(N)=O)NC(=O)[C@H](C)NC(=O)[C@H](Cc2c[nH]c3ccccc23)NC(=O)[C@H](Cc2ccc(O)cc2)NC(=O)[C@H](C)NC1=O)[C@@H](C)O [compound 43] (Ac-LTF[R8]AYWAQL[S5]HHL[dA]-NH2; staple 4-11) | 0 | −1 | −1 |  |  |  |  |  |  | 

SMILES | % Helix 50% TFE compared to 50% TFE parent (CD) [1] [%] | Molar Ellipticity TFE − Molar Ellipticity Benign [1] [deg cm^2 dmol^−1] | Molar Ellipticity 50% TFE (222 in 50% TFE) [1] [deg cm^2 dmol^−1] | Molar Ellipticity Benign (222 in 0% TFE) [1] [deg cm^2 dmol^−1] | % Helix benign compared to 50% TFE parent (CD) [1] [%] | 6.25 μM % Lysed cells (1 h LDH) (SJSA-1 cells) [%] | 25 μM % Lysed cells (1 h LDH) (SJSA-1 cells) [%] | 50 μM % Lysed cells (1 h LDH) (SJSA-1 cells) [%] | pEC50 (RKO) | caspase 0.3 μM (Caspase 3) | caspase 1 μM (Caspase 3) | caspase 3 μM (Caspase 3) | caspase 10 μM (Caspase 3) | caspase 30 μM (Caspase 3) | pEC50 (SJSA-1)
CC(=O)N[C@@H](CC(C)C)C(=O)N[C@H](C(=O)N[C@@H](Cc1ccccc1)C(=O)N[C@]1(C)CCCCCCC=CCCC[C@@](C)(C(=O)N[C@@H](C)C(=O)N[C@@H](C)C(=O)N[C@@H](C)C(=O)N[C@@H](C)C(=O)N[C@H](C)C(N)=O)NC(=O)[C@H](CC(C)C)NC(=O)[C@H](CCC(N)=O)NC(=O)[C@H](C)NC(=O)[C@H](Cc2c[nH]c3ccccc23)NC(=O)[C@H](Cc2ccc(O)cc2)NC(=O)[C@H](C)NC1=O)[C@@H](C)O [compound 233] | 131.2 | −18554.7 | −19032.6 | −477.9 | 3.3 | 2.5 | 3.5 | 6 |  | 6 | 8 | 17 | 22 | 23 | 
